Measured values from patent US10858352B2, “Pharmaceutical compounds” (Heptares Therapeutics Limited, priority 2018, dated 2020).
Where two headings read alike, the source gives them in different places.

Key:
Assay type in all cases: cell-based
[1] = target: T1, human muscarinic M2 receptor (Homo sapiens, UniProt P08172); assay: Alphascreen Surefire phospho-ERK1/2 functional assay, M2; details: for Emax: CHO
T1 sequence (P08172 1-466): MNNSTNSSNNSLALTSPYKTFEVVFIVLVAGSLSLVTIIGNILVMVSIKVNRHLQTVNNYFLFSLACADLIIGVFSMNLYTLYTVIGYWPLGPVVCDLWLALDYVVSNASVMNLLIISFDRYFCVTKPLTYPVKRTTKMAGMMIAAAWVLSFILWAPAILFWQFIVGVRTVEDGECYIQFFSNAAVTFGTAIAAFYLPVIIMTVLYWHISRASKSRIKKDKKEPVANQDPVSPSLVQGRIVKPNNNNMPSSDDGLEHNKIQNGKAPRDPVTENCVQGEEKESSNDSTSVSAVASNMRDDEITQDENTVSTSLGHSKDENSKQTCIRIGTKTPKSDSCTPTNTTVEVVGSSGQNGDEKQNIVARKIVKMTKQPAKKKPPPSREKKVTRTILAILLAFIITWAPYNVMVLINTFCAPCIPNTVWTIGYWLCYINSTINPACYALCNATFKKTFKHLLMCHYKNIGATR
Description: (§1) ERK1/2 phosphorylation is a downstream consequence of both Gq/11 and Gi/o protein coupled receptor activation, making it highly suitable for the assessment of M1, M3 (Gq/11 coupled) and M2, M4 receptors (Gi/o coupled), rather than using different assay formats for different receptor subtypes. CHO cells stably expressing the human muscarinic M1, M2, M3 or M4 receptor were plated (25K/well) onto 96-well tissue culture plates in MEM-alpha+10% dialysed FBS. Once adhered, cells were serum-starved overnight. Agonist stimulation was performed by the addition of 5 μL agonist to the cells for 5 min (37° C.). Media was removed and 50 μL of lysis buffer added. After 15 min, a 4 μL sample was transferred to 384-well plate and 7 μL of detection mixture added. […]

[2] = target: T2, human muscarinic M4 receptor (Homo sapiens, UniProt P08173); assay: Alphascreen Surefire phospho-ERK1/2 functional assay, M4; details: for EC50 / pEC50 M4: agonist 5 min, 37° C.; for Emax: CHO, read-out: % Emax cf. ACh (M4), CHO cells stably expressing human M4; for Emax / % Emax cf. ACh (M4): Emax relative to ACh
T2 construct: expressed in transfected cells
T2 sequence (P08173 1-479): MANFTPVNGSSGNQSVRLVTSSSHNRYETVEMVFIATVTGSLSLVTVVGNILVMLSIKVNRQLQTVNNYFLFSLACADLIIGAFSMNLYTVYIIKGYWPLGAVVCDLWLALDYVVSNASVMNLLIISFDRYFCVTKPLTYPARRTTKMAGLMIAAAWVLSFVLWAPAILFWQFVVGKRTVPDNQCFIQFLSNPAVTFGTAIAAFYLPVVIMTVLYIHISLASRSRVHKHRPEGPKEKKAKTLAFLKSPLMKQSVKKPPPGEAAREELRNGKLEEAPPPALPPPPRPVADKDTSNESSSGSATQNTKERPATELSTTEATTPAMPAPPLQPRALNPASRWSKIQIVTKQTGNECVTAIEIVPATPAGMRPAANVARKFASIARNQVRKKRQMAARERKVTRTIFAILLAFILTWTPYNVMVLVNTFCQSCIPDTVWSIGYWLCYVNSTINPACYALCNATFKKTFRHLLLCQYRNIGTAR
Description: as §1

[3] = target: T3, human muscarinic M3 receptor (Homo sapiens, UniProt P20309); assay: Alphascreen Surefire phospho-ERK1/2 functional assay, M3; details: for Emax: CHO
T3 construct: expressed in transfected cells
Description: as §1

[4] = target: T4, human muscarinic M1 receptor (Homo sapiens, UniProt P11229); assay: Alphascreen Surefire phospho-ERK1/2 functional assay, M1; details: for EC50 / pEC50 M1: agonist 5 min, 37° C.; for Emax: CHO
T4 sequence (P11229 1-460): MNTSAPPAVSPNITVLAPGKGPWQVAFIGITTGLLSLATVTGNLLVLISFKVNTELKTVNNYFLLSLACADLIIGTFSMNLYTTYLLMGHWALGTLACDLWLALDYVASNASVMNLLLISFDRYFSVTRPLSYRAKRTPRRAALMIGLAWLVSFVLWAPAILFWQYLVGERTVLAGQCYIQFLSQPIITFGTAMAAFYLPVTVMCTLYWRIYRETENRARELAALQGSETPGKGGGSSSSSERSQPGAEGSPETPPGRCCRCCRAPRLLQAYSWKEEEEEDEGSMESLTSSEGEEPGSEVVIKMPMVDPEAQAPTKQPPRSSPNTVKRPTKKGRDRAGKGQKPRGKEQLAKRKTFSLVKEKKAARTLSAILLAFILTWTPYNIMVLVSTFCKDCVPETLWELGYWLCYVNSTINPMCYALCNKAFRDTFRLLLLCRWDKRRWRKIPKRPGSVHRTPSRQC
Description: as §1

[5] = CHO cells stably expressing human M2, agonist 5 min, 37° C., read-out: pEC50 M2 (converted)
[6] = CHO cells stably expressing human M4, read-out: pEC50 M4 (converted)
[7] = CHO cells stably expressing human M3, agonist 5 min, 37° C., read-out: pEC50 M3 (converted)
[8] = CHO cells stably expressing human M1, read-out: pEC50 M1 (converted)
[9] = read-out: % Emax cf. ACh (M1), CHO cells stably expressing human M1, Emax relative to ACh
[10] = pEC50 M1, CHO cells stably expressing human M1
[11] = CHO cells stably expressing human M4
[12] = CHO cells stably expressing human M1, Emax relative to ACh
[13] = CHO cells stably expressing human M1

T3 sequence (P20309 whole entry): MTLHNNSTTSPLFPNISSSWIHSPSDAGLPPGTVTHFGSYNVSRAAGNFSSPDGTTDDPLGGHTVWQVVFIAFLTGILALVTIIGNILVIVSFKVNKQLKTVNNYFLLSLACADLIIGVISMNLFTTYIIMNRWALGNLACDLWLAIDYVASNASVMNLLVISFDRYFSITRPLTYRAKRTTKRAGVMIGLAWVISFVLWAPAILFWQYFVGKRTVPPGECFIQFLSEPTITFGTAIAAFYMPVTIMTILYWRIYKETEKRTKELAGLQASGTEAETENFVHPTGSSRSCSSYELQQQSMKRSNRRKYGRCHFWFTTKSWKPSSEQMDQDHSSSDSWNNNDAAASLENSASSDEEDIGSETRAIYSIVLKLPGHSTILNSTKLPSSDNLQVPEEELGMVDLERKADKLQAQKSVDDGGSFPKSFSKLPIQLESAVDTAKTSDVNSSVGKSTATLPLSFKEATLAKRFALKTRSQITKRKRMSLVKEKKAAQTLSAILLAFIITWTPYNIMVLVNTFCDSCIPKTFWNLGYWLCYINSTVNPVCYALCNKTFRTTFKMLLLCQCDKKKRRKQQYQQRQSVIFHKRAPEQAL

Compound: Cc1noc(N2CCC3(CC(N4CCC(n5cccn5)CC4)C3)C2)n1 (single isomer, unassigned) [2-1 Isomer 2]
- EC50 [1, 5]: > 20000 nM
- Emax ([1]; read-out: % Emax cf. ACh (M2), CHO cells stably expressing human M2, Emax relative to ACh): 2%
- EC50 [2, 6]: 302 nM
- Emax [2]: 41%
- EC50 [3, 7]: > 20000 nM
- Emax ([3]; read-out: % Emax cf. ACh (M3), CHO cells stably expressing human M3, Emax relative to ACh): 3%
- EC50 [4, 8]: > 20000 nM
- Emax [4, 9]: 56%

Compound: Cc1noc(N2CCC3(CC(N4CCC(C#N)(c5ccccc5)CC4)C3)C2)n1 (single isomer, unassigned) [2-2 Isomer 2]
- EC50 [1]: > 20000 nM
- Emax ([1]; read-out: % Emax cf. ACh (M2)): 2%
- Emax [2]: 51%
- EC50 ([2]; pEC50 M4, CHO cells stably expressing human M4): 117 nM
- EC50 [3]: > 20000 nM
- Emax ([3]; read-out: % Emax cf. ACh (M3)): 3%
- Emax ([4]; read-out: % Emax cf. ACh (M1)): 40%
- EC50 [4, 10]: 741 nM

Compound: Cc1noc(N2C3CCC2CC(N2CCC(n4cccn4)CC2)C3)n1 (single isomer, unassigned) [6-1 Isomer 1]
- EC50 [1, 5]: > 20000 nM
- Emax ([1]; read-out: % Emax cf. ACh (M2)): 2%
- EC50 [2, 6]: 295 nM
- Emax [2]: 51%
- EC50 [3, 7]: > 20000 nM
- Emax ([3]; read-out: % Emax cf. ACh (M3)): 2%
- EC50 [4, 8]: > 20000 nM
- Emax [4, 9]: 23%

Compound: CCc1noc(N2C3CCC2CC(N2CCC4(CC2)CNC(=O)C4)C3)n1 (single isomer, unassigned) [6-3 Isomer 2]
- EC50 [1]: > 20000 nM
- Emax ([1]; read-out: % Emax cf. ACh (M2)): 3%
- EC50 [2, 6]: > 20000 nM
- Emax [2]: 7%
- EC50 [3]: > 20000 nM
- Emax ([3]; read-out: % Emax cf. ACh (M3)): 1%
- Emax [4, 9]: 33%
- EC50 [4, 10]: 32.4 nM

Compound: Cc1noc(N2CCCC(N3CCC(N4CCCC4c4cnn(C)c4)CC3)CC2)n1 (single isomer, unassigned) [10-10 Isomer 2a]
- % Emax cf. ACh (M4) [2, 11]: (52) %
- EC50 [2, 6]: 1450 nM
- % Emax cf. ACh (M1) [4, 12]: (3) %
- pEC50 M1 [4, 13]: <4.70

Compound: Cc1noc(N2CCCC(N3CCC(N4CCCC4c4cnn(C)c4)CC3)CC2)n1 (single isomer, unassigned) [10-10 Isomer 2b]
- % Emax cf. ACh (M4) [2, 11]: (72) %
- EC50 [2, 6]: 316 nM
- % Emax cf. ACh (M1) [4, 12]: (14) %
- pEC50 M1 [4, 13]: <4.70

Compound: CNC(=O)N1CCC[C@H]1C1CCN(C2CCCN(c3nc(C)no3)CC2)CC1 (single isomer, unassigned) [10-12 Isomer 1]
- EC50 [2, 6]: 309 nM
- Emax [2]: 100%
- EC50 [4, 8]: > 20000 nM
- Emax [4, 9]: 22%

Compound: CNC(=O)N1CCC[C@H]1C1CCN(C2CCCN(c3nc(C)no3)CC2)CC1 (single isomer, unassigned) [10-12 Isomer 2]
- % Emax cf. ACh (M4) [2, 11]: (119) %
- EC50 [2, 6]: 55 nM
- % Emax cf. ACh (M1) [4, 12]: (24) %
- pEC50 M1 [4, 13]: <4.70

Compound: Cc1noc(N2CC3CC(N4CCC(n5cccn5)CC4)CC2C3)n1 (single isomer, unassigned) [11-1 Isomer 2]
- EC50 [2, 6]: 1050 nM
- Emax [2]: 69%
- EC50 [4, 8]: 3160 nM
- Emax [4, 9]: 48%

Compound: Cc1noc(N2CC3CCC2CC3N2CCC3(CC2)CNC(=O)C3)n1 (single isomer, unassigned) [12-1 Isomer 1]
- % Emax cf. ACh (M4) [2, 11]: (5) %
- EC50 [2, 6]: > 20000 nM
- % Emax cf. ACh (M1) [4, 12]: (58) %
- EC50 [4, 8]: 603 nM

Compound: Cc1noc(N2C3CCC2CC(N2CCC(C(=O)NC4(C(F)(F)F)CCC4)CC2)C3)n1 (single isomer, unassigned) [12-7 Isomer 2]
- EC50 [2, 6]: 2000 nM
- Emax [2]: 109%
- EC50 [4, 8]: 537 nM
- Emax [4, 9]: 109%

Compound: Cc1noc(N2C3CCC2CC(N2CCC(C(=O)NC4(C)CCCC4)CC2)C3)n1 (single isomer, unassigned) [12-11 Isomer 2]
- EC50 [2, 6]: 2690 nM
- Emax [2]: 83%
- EC50 [4, 8]: 661 nM
- Emax [4, 9]: 103%

Compound: Cc1noc(N2C3CCC2CC(N2CCC(C(=O)NCC4(C)CCC4)CC2)C3)n1 (single isomer, unassigned) [12-12 Isomer 2]
- EC50 [2, 6]: 209 nM
- Emax [2]: 107%
- Emax [4, 9]: 80%
- EC50 [4, 10]: 3.72 nM

Compound: CC1(NC(=O)C2CCN(C3CC4CCC(C3)N4c3nc(C(F)(F)F)no3)CC2)CCC1 (single isomer, unassigned) [12-14 Isomer 1]
- % Emax cf. ACh (M4) [2, 11]: (6) %
- EC50 [2, 6]: > 20000 nM
- % Emax cf. ACh (M1) [4, 12]: (47) %
- EC50 [4, 10]: 912 nM

Compound: CCN(C)C(=O)[C@H]1[C@@H]2CN(C3CC4CCC(C3)N4c3nc(C)no3)C[C@@H]21 (single isomer, unassigned; isomer 1) [12-24 Isomer 1]
- % Emax cf. ACh (M4) [2, 11]: (16) %
- pEC50 M4 [2, 11]: <4.70
- % Emax cf. ACh (M1) [4, 12]: (74) %
- pEC50 M1 [4, 13]: 6.08

Compound: Cc1noc(N2C3CCC2CC(N2C[C@@H]4[C@H](C2)[C@H]4C(=O)NC2(C)CCC2)C3)n1 (single isomer, unassigned; isomer 2) [12-13 Isomer 2]
- % Emax cf. ACh (M4) [2, 11]: (69) %
- pEC50 M4 [2, 11]: 6.09
- % Emax cf. ACh (M1) [4, 12]: (102) %
- pEC50 M1 [4, 13]: 6.48

Compound: Cc1noc(N2CC3(CC(N4CCC(n5cccn5)CC4)C3)C2)n1 [Example 1-1, 2-(3-Methyl-1,2,4-oxadiazol-5-yl)-6-[4-(1H-pyrazol-1-yl)piperidin-1-yl]-2-azaspiro[3.3]heptane]
- EC50 [2, 6]: 513 nM
- Emax [2]: 77%
- EC50 [4, 8]: 10200 nM
- Emax [4, 9]: 48%

Compound: Cc1noc(N2CCC(N3CCC(n4cccn4)CC3)CC2)n1 [Example 4-1, 1′-(3-Methyl-1,2,4-oxadiazol-5-yl)-4-(1H-pyrazol-1-yl)-1,4′-bipiperidine]
- EC50 [2, 6]: 1000 nM
- Emax [2]: 85%
- EC50 [4, 8]: ≥ 20000 nM
- Emax [4, 9]: 50%
